Assay results published in US20200268728A1, “DRUG TARGETING CANCER STEM CELL” (Sumitomo Dainippon Pharma Co., Ltd., priority 2016, published 2020).
Counter-ions that a name gives are not always drawn. Like-named read-outs stand apart in the source and are kept apart here.

Assays:
[1] = test system: LNCap cells; assay: Combination with Example 24, inhibitory effect on sphere-forming ability (Test Example 6); format: cell-based; conditions: LNCap sphere culture, test compound combined with Example 24 (2-1000 nmol/L), 4 days
Description: After the culture, CellTiterGlo (Promega) was added into all of the wells, and the plate is allowed to stand at room temperature for 10 minutes to measure the intensity of luminescence of each well. […] The formula for calculating the rate is shown below.
Sphere formation rate (%)=(Lsample)/(Lcontrol)×100
The value obtained by dividing the sphere formation rate by 100 and subtracting the calculated value from 1 is defined as a sphere formation inhibitory effect. The formula for calculating the effect is shown below.
Sphere formation inhibitory effect=1−(Sphere formation rate/100)
Also, the measured cell survival rate of the combination was defined as (Ld).
The minimum value thereof (sCI) was used as the criteria for screening.

[2] = test system: HCT-116 cells; assay: Anti-tumor effect to HCT-116 tumor-bearing mouse (Test Example 2); format: in vivo; conditions: oral, read-out: T/C (%); for response vs control in vivo at 150 mg/kg: dosage 150 mg/kg
Text: The present compound can be used to evaluate the anti-tumor effect thereof. A 4 to 7-week-old nude mouse (BALB/cAnNCrj-nu/nu, female, CHARLES RIVER LABORATORIES JAPAN, INC.) received intradermal transplantation of HCT-116 cells (ATCC) in an amount of 3×10^6 cells/mouse around the ventral portion. The engraftment of HCT-116 cells was observed 5 to 14 days after the transplantation, and then each compound suspended in a solvent such as 0.5% methylcellulose solution was orally administrated to the mouse in a dose of 1 to 200 mg/kg one to twice daily. The tumor volume was measured over time after the administration to evaluate the effect for reducing the tumor volume by the administration of each compound. The tumor volume can be calculated from the minor axis and the major axis of the tumor measured with a digital caliper (Mitutoyo) according to the following formula:
Tumor volume [mm^3]=0.5×minor axis [mm]×(major axis [mm])^2
The tumor volume in control administration group treated with only a solvent such as 0.5% methylcellulose solution was compared with that of the present compound administration group, and T/C value was calculated according the following formula to evaluate the anti-tumor effect of the present compound.
T/C(%)=(the tumor volume at the end of administration in the present compound administration group−the tumor volume at the start of administration in the present compound administration group)/(the tumor volume at the end of administration in the control administration group−the tumor volume at the start of administration in the control administration group)×100
The T/C values (%) of the present compound on each dosage and administration period in the HCT-116 tumor-bearing mouse are shown below.

[3] = HCT-116, 456 h, administration period 19 day

## CC(O)(CS(=O)(=O)c1ccc(F)cc1)C(=O)Nc1ccc(C#N)c(C(F)(F)F)c1 (centres unmarked) [Bicalutamide]
[1]
  sCI, minimum (Ld)/(Lc): 0.421

## COc1ccc(C(=O)Nc2cn(Cc3cc(F)c(F)c(F)c3)cn2)cc1OC [Example 13-2]
[2]; HCT-116, 528 h, dosage 15 mg/kg, administration period 22 day
  response vs control in vivo at 15 mg/kg: 72%
[2]; HCT-116, 528 h, administration period 22 day
  response vs control in vivo at 150 mg/kg: 45%

## COc1ccc(C(=O)Nc2cn(Cc3ccc(F)c(F)c3)cn2)cc1OC [Example 11-2]
[2]; [3]
  response vs control in vivo at 150 mg/kg: 52%

## COc1ccc(C(=O)Nc2cn(Cc3cccc(Cl)c3)cn2)cc1OC [Example 10-2, N-[1-(3-Chlorobenzyl)-1H-imidazol-4-yl]-3,4-dimethoxybenzamide hydrochloride]
[2]; [3]
  response vs control in vivo at 150 mg/kg: 53%

## CNC(=O)c1ccc(N2C(=S)N(c3ccc(C#N)c(C(F)(F)F)c3)C(=O)C2(C)C)cc1F [Enzalutamide]
[1]
  sCI, minimum (Ld)/(Lc): 0.826

## O=C(/C=C/c1cccnc1)Nc1cn(Cc2cccc(Cl)c2)cn1 [Example 9-2, (2E)-N-(1-(3-Chlorobenzyl)-1H-imidazol-4-yl)-3-(pyridin-3-yl)prop-2-enamide dihydrochloride]
[2]; HCT-116, 384 h, administration period 16 day
  response vs control in vivo at 150 mg/kg: 65%

## COc1ccc(C(=O)Nc2cn(Cc3cc(F)cc(F)c3)cn2)cc1OC [Example 12-2]
[2]; [3]
  response vs control in vivo at 150 mg/kg: 84%
